Values after ≈ are worked out from the molar mass of the structure shown.
Tests used:
Type in all cases: cell-based
[1] = test system: HCT-116 colorectal cancer cell line; test: CCK-8 proliferation inhibition; conditions: Homo sapiens, HCT-116, 72 h, concentration of 30 μM; 72 hours; CCK-8; read-out: HCT116 inhibition rate/%
Method: (1) HCT-116 colorectal cancer cell line, A549 lung cancer cell line, MGC-803 gastric cancer cell line, BEL-7402 liver cancer cell line, Jurkat T cell leukemia cell line, HL60 acute myeloid leukemia cell line, Hela cervical cancer cell line, MCF-7 breast cancer cell line, PC3 prostate cancer cell line and SAOS-2 osteosarcoma cell line were made into single cell suspension, 180 μL of which was inoculated into 96-well culture plate, which was cultured overnight in CO2 incubator (37° C., 5% CO2, 95% air).
(2) Each of the spiro three-membered ring, spiro five membered ring peptide deformylase inhibitors was dissolved in DMSO, and was further formulated into drug solution with required different final concentration using corresponding cell culture medium. The drug solutions were added to the above cells respectively (20 μL/well), with the control group added with 1‰ DMSO, and cultured in a CO2 incubator for 72 hours.
(3) After incubation for 72 hours, the culture solution was decanted, and 100 μL of 1:10 diluted CCK-8 solution was added.
Wherein, in step (1), the concentration of the single cell suspension was 2000 cells/well.
Wherein, in step (2), HCT-116 cells were cultured in McCoy's 5A medium (containing 10% newborn bovine serum, 1% double antibody); A549 and PC3 cells were cultured in F12 medium (containing 10% newborn bovine serum, 1% double antibody); MGC-803, BEL-7402, SAOS-2, Jurkat and HL60 cells were cultured in 1640 medium (containing 10% newborn bovine serum, 1% double antibody); and MCF-7 and Hela cells were cultured in DMEM high glucose medium (containing 10% newborn bovine serum, 1% double antibody).

[2] = test system: Escherichia coli (including ESBLs, non-ESBLs); test: MIC, two-fold agar dilution (CLSI), clinical isolates
Description: (§1) 1. The invention adopts the two-fold agar dilution method recommended by the operating procedure of antimicrobial susceptibility testing set by American Clinical and Laboratory Standards Institute (CLSI) to determine the Minimum Inhibitory Concentration (MIC) of the test samples against the tested strains.

[3] = test system: methicillin-resistant Staphylococcus epidermidis (MRSE); test: as above
Description: as §1

[4] = test system: Moraxella catarrhalis (BCA); test: as above
Description: as §1

[5] = test system: Enterococcus faecium (EFM); test: as above
Description: as §1

[6] = test system: methicillin-sensitive Staphylococcus epidermidis (MSSE); test: as above
Description: as §1

[7] = test system: methicillin-sensitive Staphylococcus aureus (MSSA); test: as above
Description: as §1

[8] = test system: methicillin-resistant Staphylococcus aureus (MRSA); test: as above
Description: as §1

[9] = test system: Streptococcus pneoumoniae (SPN); test: as above
Description: as §1

[10] = test system: Enterococcus faecalis (EFA); test: as above
Description: as §1

CCCC[C@H](CN(O)C=O)C(=O)N1CC2(CC2)C[C@H]1C(=O)Nc1ccc(N2CCOCC2)cc1 [Example 14]
inhibition at 30 µM [1]: 21%
MIC (anti-bacterial activity) ([2]; strain ECO+ 15-1): > 32 µg/mL
MIC (anti-bacterial activity) ([2]; strain ECO+ 15-2): > 32 µg/mL
MIC (anti-bacterial activity) ([2]; strain ECO+ 15-3): > 32 µg/mL
MIC (anti-bacterial activity) ([2]; strain ECO+ 15-4): > 32 µg/mL
MIC (anti-bacterial activity) ([2]; strain ECO− 15-1): > 32 µg/mL
MIC (anti-bacterial activity) ([2]; strain ECO− 15-2): > 32 µg/mL
MIC (anti-bacterial activity) ([2]; strain ECO− 15-3): > 32 µg/mL
MIC (anti-bacterial activity) ([2]; strain ECO− 15-4): > 32 µg/mL
MIC (anti-bacterial activity) ([3]; strain MRSE 15-1): 0.25 µg/mL (≈ 0.529 µM)
MIC (anti-bacterial activity) ([3]; strain MRSE 15-2): 0.25 µg/mL (≈ 0.529 µM)
MIC (anti-bacterial activity) ([3]; strain MRSE 15-3): 1 µg/mL (≈ 2.12 µM)
MIC (anti-bacterial activity) ([3]; strain MRSE 15-7): 1 µg/mL (≈ 2.12 µM)
MIC (anti-bacterial activity) ([4]; strain BCA 14-1): 4 µg/mL (≈ 8.46 µM)
MIC (anti-bacterial activity) ([4]; strain BCA 14-4): 2 µg/mL (≈ 4.23 µM)
MIC (anti-bacterial activity) ([4]; strain BCA 14-5): 2 µg/mL (≈ 4.23 µM)
MIC (anti-bacterial activity) ([4]; strain BCA 14-6): 2 µg/mL (≈ 4.23 µM)
MIC (anti-bacterial activity) ([4]; strain BCA 14-7): 1 µg/mL (≈ 2.12 µM)
MIC (anti-bacterial activity) ([4]; strain BCA 14-8): 2 µg/mL (≈ 4.23 µM)
MIC (anti-bacterial activity) ([4]; strain BCA 14-10): 0.5 µg/mL (≈ 1.06 µM)
MIC (anti-bacterial activity) ([5]; strain EFM 15-1): 1 µg/mL (≈ 2.12 µM)
MIC (anti-bacterial activity) ([5]; strain EFM 15-2): 2 µg/mL (≈ 4.23 µM)
MIC (anti-bacterial activity) ([5]; strain EFM 15-3): 0.5 µg/mL (≈ 1.06 µM)
MIC (anti-bacterial activity) ([5]; strain EFM 15-4): 4 µg/mL (≈ 8.46 µM)
MIC (anti-bacterial activity) ([5]; strain EFM 15-5): 0.5 µg/mL (≈ 1.06 µM)
MIC (anti-bacterial activity) ([5]; strain EFM 15-6): 2 µg/mL (≈ 4.23 µM)
MIC (anti-bacterial activity) ([6]; strain MSSE 15-3): 0.25 µg/mL (≈ 0.529 µM)
MIC (anti-bacterial activity) ([6]; strain MSSE 15-4): 0.25 µg/mL (≈ 0.529 µM)
MIC (anti-bacterial activity) ([6]; strain MSSE 15-5): 0.25 µg/mL (≈ 0.529 µM)
MIC (anti-bacterial activity) ([6]; strain MSSE 15-6): 0.125 µg/mL (≈ 0.265 µM)
MIC (anti-bacterial activity) ([7]; strain MSSA 15-3): 1 µg/mL (≈ 2.12 µM)
MIC (anti-bacterial activity) ([7]; strain MSSA 15-4): 1 µg/mL (≈ 2.12 µM)
MIC (anti-bacterial activity) ([7]; strain MSSA 15-5): 0.25 µg/mL (≈ 0.529 µM)
MIC (anti-bacterial activity) ([7]; strain MSSA 15-6): 1 µg/mL (≈ 2.12 µM)
MIC (anti-bacterial activity) ([8]; strain MRSA 15-1): 1 µg/mL (≈ 2.12 µM)
MIC (anti-bacterial activity) ([8]; strain MRSA 15-2): 1 µg/mL (≈ 2.12 µM)
MIC (anti-bacterial activity) ([8]; strain MRSA 15-3): 1 µg/mL (≈ 2.12 µM)
MIC (anti-bacterial activity) ([8]; strain MRSA 15-4): 1 µg/mL (≈ 2.12 µM)
MIC (anti-bacterial activity) ([9]; strain SPN 16-2): 8 µg/mL (≈ 16.9 µM)
MIC (anti-bacterial activity) ([9]; strain SPN 16-4): 0.5 µg/mL (≈ 1.06 µM)
MIC (anti-bacterial activity) ([10]; strain EFA 15-1): 8 µg/mL (≈ 16.9 µM)
MIC (anti-bacterial activity) ([10]; strain EFA 15-2): 8 µg/mL (≈ 16.9 µM)
MIC (anti-bacterial activity) ([10]; strain EFA 15-3): 2 µg/mL (≈ 4.23 µM)
MIC (anti-bacterial activity) ([10]; strain EFA 15-4): 8 µg/mL (≈ 16.9 µM)
MIC (anti-bacterial activity) ([10]; strain EFA 15-5): 8 µg/mL (≈ 16.9 µM)
MIC (anti-bacterial activity) ([10]; strain EFA 15-6): 8 µg/mL (≈ 16.9 µM)
MIC (anti-bacterial activity) ([10]; strain EFA 15-9): 8 µg/mL (≈ 16.9 µM)

C[C@H]1COc2c(N3CCN(C)CC3)c(F)cc3c(=O)c(C(=O)O)cn1c23 [levofloxacin, reference compound]
Anti-bacterial activity (MIC) ([2]; strain ECO+ 15-2): 64 µg/mL
Anti-bacterial activity (MIC) ([2]; strain ECO+ 15-4): 1 µg/mL
Anti-bacterial activity (MIC) ([2]; strain ECO− 15-1): 0.03 µg/mL
Anti-bacterial activity (MIC) ([2]; strain ECO− 15-2): 128 µg/mL
Anti-bacterial activity (MIC) ([2]; strain ECO− 15-3): 0.06 µg/mL
Anti-bacterial activity (MIC) ([2]; strain ECO− 15-4): 0.06 µg/mL
Anti-bacterial activity (MIC) ([3]; strain MRSE 15-1): 16 µg/mL
Anti-bacterial activity (MIC) ([3]; strain MRSE 15-2): 16 µg/mL
Anti-bacterial activity (MIC) ([3]; strain MRSE 15-3): 16 µg/mL
Anti-bacterial activity (MIC) ([3]; strain MRSE 15-7): 16 µg/mL
Anti-bacterial activity (MIC) ([4]; strain BCA 14-1): 1 µg/mL
Anti-bacterial activity (MIC) ([4]; strain BCA 14-5): 4 µg/mL
Anti-bacterial activity (MIC) ([4]; strain BCA 14-6): 8 µg/mL
Anti-bacterial activity (MIC) ([4]; strain BCA 14-8): 1 µg/mL
Anti-bacterial activity (MIC) ([5]; strain EFM 15-1): > 128 µg/mL
Anti-bacterial activity (MIC) ([5]; strain EFM 15-2): > 128 µg/mL
Anti-bacterial activity (MIC) ([5]; strain EFM 15-3): > 128 µg/mL
Anti-bacterial activity (MIC) ([5]; strain EFM 15-4): > 128 µg/mL
Anti-bacterial activity (MIC) ([5]; strain EFM 15-5): > 128 µg/mL
Anti-bacterial activity (MIC) ([5]; strain EFM 15-6): 128 µg/mL
Anti-bacterial activity (MIC) ([6]; strain MSSE 15-3): 0.5 µg/mL
Anti-bacterial activity (MIC) ([6]; strain MSSE 15-4): 0.5 µg/mL
Anti-bacterial activity (MIC) ([6]; strain MSSE 15-5): 0.5 µg/mL
Anti-bacterial activity (MIC) ([6]; strain MSSE 15-6): 0.25 µg/mL
Anti-bacterial activity (MIC) ([7]; strain MSSA 15-3): 16 µg/mL
Anti-bacterial activity (MIC) ([7]; strain MSSA 15-4): 0.5 µg/mL
Anti-bacterial activity (MIC) ([7]; strain MSSA 15-5): 64 µg/mL
Anti-bacterial activity (MIC) ([7]; strain MSSA 15-6): 16 µg/mL
Anti-bacterial activity (MIC) ([8]; strain MRSA 15-1): 64 µg/mL
Anti-bacterial activity (MIC) ([8]; strain MRSA 15-2): > 128 µg/mL
Anti-bacterial activity (MIC) ([8]; strain MRSA 15-3): > 128 µg/mL
Anti-bacterial activity (MIC) ([8]; strain MRSA 15-4): > 128 µg/mL
Anti-bacterial activity (MIC) ([9]; strain SPN 16-2): 1 µg/mL
Anti-bacterial activity (MIC) ([9]; strain SPN 16-4): 1 µg/mL
Anti-bacterial activity (MIC) ([10]; strain EFA 15-1): > 128 µg/mL
Anti-bacterial activity (MIC) ([10]; strain EFA 15-2): > 128 µg/mL
Anti-bacterial activity (MIC) ([10]; strain EFA 15-4): 1 µg/mL
Anti-bacterial activity (MIC) ([10]; strain EFA 15-5): 1 µg/mL
Anti-bacterial activity (MIC) ([10]; strain EFA 15-6): > 128 µg/mL
Anti-bacterial activity (MIC) ([10]; strain EFA 15-9): 128 µg/mL

— patent publication US10738028B2, “Spiro three-membered ring, spiro five-membered ring peptide deformylase inhibitor and use thereof in antibacteria and anti-tumor” (priority 2016, dated 2020)
